The values that follow come from US20240293586A1, “RA[…] AND USE THEREOF” (OSAKA UNIVERSITY, priority 2021, published 2024).

What all share (type): in vivo, SCID mice
For data set [1], the system named is human prostate cancer cells (LNCaP). Put plainly: Imaging of human prostate cancer-transplanted mice (planar images, SPECT camera). To be noted: FIG. 5; for accumulation at the tumor-transplanted site: 0.43±0.01 MBq via the tail vein. The procedure: (§1) SCID mice (9 weeks old, male, n=5) were subcutaneously transplanted with human prostate cancer cells (LNCaP, 0.5×10^7 cells/mouse), and then kept for one month. The mice were divided into Compound 3 administration group (n=3) and control group (n=2). For the Compound 3 administration group, Compound 3 (0.43±0.01 MBq) was administered via the tail vein. For the control group, physiological saline was administered. The mice in the Compound 3 administration group (n=3) were anesthetized with isoflurane inhalation at 3 and 24 hours after administration, and the planar images were taken using a SPECT camera (E-cam, Siemens) (matrix size: 256×256, pixel size 1.2×1.2 mm, collimator: LEAP, energy window: 79 keV±20%, image acquisition time 10 min or 20 min).

The test system is the same in data set [2]. The data set can be described thus: Therapeutic test in human prostate cancer-transplanted mice with Compound 3 (tumor size). To be noted: 0.5 MBq, FIG. 6. As to the method:
as §1
(§2) The mice in the Compound 3 administration group (0.5 MBq, n=3) and control group (CTL, n=2) of Experimental Example 1 were kept for 3 weeks thereafter, and changes in tumor size were measured. The tumor size was standardized by size at the time of drug administration, and the relative ratio (fold change) to subsequent tumor size was calculated. The tumor size in the control group increased over time, and it increased about seven times after three weeks. […] The mice were dissected and blood biochemical tests were performed.

A short description of data set [3]: Blood biochemical tests and histopathological examination after the therapeutic test. To be noted: 3 weeks after 0.5 MBq. As to the method: as §2
For data set [4], the system named is human prostate cancer cells (LNCaP). The data set can be described thus: Biodistribution test in human prostate cancer-transplanted mice or normal mice. To be noted: approximately 0.1 MBq, 3 and 24 hours after administration; for accumulation in the tumors (radioactivity distribution % ID, % ID/g): tumor-transplanted mice, FIGS. 8, 10; for accumulation in the kidney (radioactivity distribution % ID, % ID/g): tumor-transplanted or normal mice, FIGS. 7 to 11. As to the method:
SCID mice (9 weeks old, male, n=5) were subcutaneously transplanted with human prostate cancer cells (LNCaP, 0.5×10^7 cells/mouse), and then kept for one month. Compound 3, 4, 7 or 8 (approximately 0.1 MBq) was administered to the tumor-transplanted mice or normal mice, and the mice were dissection under isoflurane inhalation anesthesia at 3 and 24 hours after administration to collect various organs including blood, urine and tumors. The radioactivity distribution (% ID) and radioactivity distribution per 1 g of organ weight (% ID/g) were measured for each organ.

Data set [5] has the same test system. Put plainly: Therapeutic test in human prostate cancer-transplanted mice (Experimental Example 4). To be noted: 0.4 MBq or 1 MBq, n=3; kept for 3 weeks; FIGS. 12 to 14. The procedure:
SCID mice (9 weeks old, male, n=5) were subcutaneously transplanted with human prostate cancer cells (LNCaP, 0.5×10^7 cells/mouse), and then kept for one month. The tumor-transplanted mice were divided into Compound 3, 7 or 8 administration group (0.4 MBq or 1 MBq, n=3) and control group (CTL, n=2 or 3), and kept for 3 weeks thereafter, and changes in tumor size and body weight were measured.

[6] abbreviates: planar imaging at 3 and 24 hours after administration.

As to `O=C(O)CC[C@H](NC(=O)N[C@@H](CCCCNC(=O)[C@@H](Cc1ccc2ccccc2c1)NC(=O)c1ccc(CNC(=O)[C@@H](CCC(=O)O)NC(=O)[C@@H](CCC(=O)O)NC(=O)Cc2ccc([211At])cc2)cc1)C(=O)O)C(=O)O` [Compound 3], the “accumulation at the tumor-transplanted site” value in data set [1] (3 hours after administration) is listed as “accumulated at the tumor-transplanted site”. For the same compound, the “accumulation at the tumor-transplanted site” value in data set [1] (24 hours after administration) is recorded as “the accumulation continued”. Besides, in data set [1] (setting [6]), the “accumulation in the kidneys” value is listed as “physiological accumulation in the kidneys” and the “nonspecific accumulation in other organs” value is recorded as “no nonspecific accumulation in other organs was observed”. Further, the “tumor size, relative ratio (fold change) to size at the time of drug administration” value in data set [2] (after three weeks, n=3, control increased about seven times) came to 0.27 times. The tumor size change entry in data set [2] (immediately after administration) is on record as “tendency to shrink”. For the same compound, in data set [3], the “histopathological examination of kidneys, salivary glands and thyroid glands” value is listed as “no particular abnormal findings”; the “renal function marker values (blood biochemical tests) versus control group” value is listed as “no significant differences”. Moreover, in data set [4], the “accumulation in the tumors (radioactivity distribution % ID, % ID/g)” value is recorded as “significantly accumulated in the tumors” and the “accumulation in the kidney (radioactivity distribution % ID, % ID/g)” value is given as “accumulate physiologically in the kidney”. For the same compound, the “change in tumor size versus control group” value in data set [5] was “tumor growth inhibition was observed”.

Regarding `O=C(O)CC[C@H](NC(=O)N[C@@H](CCCCNC(=O)[C@H](Cc1ccc2ccccc2c1)NC(=O)c1ccc(CNC(=O)[C@H](CCC(=O)O)NC(=O)[C@H](CCC(=O)O)NC(=O)Cc2ccc([211At])cc2)cc1)C(=O)O)C(=O)O` [Compound 4], in data set [4], the “accumulation in the kidney (radioactivity distribution % ID, % ID/g)” value is “accumulate physiologically in the kidney”.

As for `O=C(O)CC[C@H](NC(=O)N[C@@H](CCCCNC(=O)[C@@H](Cc1ccc2ccccc2c1)NC(=O)c1ccc(CNC(=O)CCC(=O)NCCCC[C@H](NC(=O)CNC(=O)Cc2ccc([211At])cc2)C(=O)O)cc1)C(=O)O)C(=O)O` [Compound 7], in data set [4], the “accumulation in the tumors (radioactivity distribution % ID, % ID/g)” value is given as “significantly accumulated in the tumors” and the “accumulation in the kidney (radioactivity distribution % ID, % ID/g)” value is given as “accumulate physiologically in the kidney”. The “change in tumor size versus control group” value in data set [5] is given as “tumor growth inhibition was observed”.

Regarding `O=C(O)CC[C@H](NC(=O)N[C@@H](CCCCNC(=O)[C@@H](Cc1ccc2ccccc2c1)NC(=O)c1ccc(CNC(=O)[C@@H](CCC(=O)O)NC(=O)[C@@H](CCC(=O)O)NC(=O)CCC(=O)NCCCC[C@H](NC(=O)CNC(=O)Cc2ccc([211At])cc2)C(=O)O)cc1)C(=O)O)C(=O)O` [Compound 8], in data set [4], the “accumulation in the kidney (radioactivity distribution % ID, % ID/g)” value was “accumulate physiologically in the kidney”. In data set [5], the “change in tumor size versus control group” value is “tumor growth inhibition was observed”.
